Among the test systems are DU-145 prostate; TK-10 renal; U251 CNS; OVCAR-8 ovarian; OVCAR-3 ovarian; SNB-19 CNS; HOP-62 NSCLC; EKVX NSCLC; SW-620 colon; NCI-H522 lung.
What all share (assay): NCI tumour cell line growth inhibition, 48 h

The structures appear in SMILES notation.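 1) Cells in 96-well plates. 2) Compound, 48 h, 5 concentrations. 3) Linear interpolation between surrounding doses. 4) Unreached endpoint = highest concentration. GI50 = concentration required for 50% inhibition of growth. TGI: concentration producing complete growth inhibition.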

On to `CC(=O)Oc1cccc2c(/C=N/NC(N)=S)ncc(C)c12`, for which the TGI in the assay with DU-145 prostate is 17.8 µM; with TK-10 renal, 22 µM; in the assay on U251 CNS, above 42.6 µM; in the assay on OVCAR-8 ovarian, above 34.9 µM; in the assay on OVCAR-3 ovarian, 32.3 µM; in the assay with SNB-19 CNS, 16.3 µM. Moreover, the TGI in the assay with HOP-62 NSCLC was 14.6 µM; in the assay with EKVX NSCLC, 39.7 µM; with SW-620 colon it was above 49.7 µM; with NCI-H522 lung, 32.5 µM.

In the case of `NNC(N)Nc1ccccc1` (centres undefined), the TGI in the assay on DU-145 prostate, in the assay with TK-10 renal, with U251 CNS, in the assay with OVCAR-8 ovarian, in the assay on OVCAR-3 ovarian and in the assay with SNB-19 CNS was above 100 µM in each case. The TGI in the assay with HOP-62 NSCLC, in the assay with EKVX NSCLC, in the assay with SW-620 colon and in the assay on NCI-H522 lung was above 100 µM throughout.

Turning to `C=CC(Br)(CBr)CCC(Cl)C(C)C` (centres undefined), the TGI in the assay with DU-145 prostate came out at 8.69 µM; in the assay on TK-10 renal, 3.5 µM; in the assay with U251 CNS, 3.02 µM; in the assay on OVCAR-3 ovarian, 4.13 µM; with SNB-19 CNS, 6.82 µM; in the assay with HOP-62 NSCLC, 3.2 µM. In addition, the TGI with EKVX NSCLC is 21.8 µM; in the assay with SW-620 colon, 3.35 µM; in the assay on NCI-H522 lung, 2.8 µM.

`CCC[CH2][Ge]([CH2]CCC)([CH2]CCC)[O]C(=O)CC(=O)c1ccccc1`: the GI50 with TK-10 renal is 7.03 µM; with U251 CNS it was 3.27 µM; in the assay with OVCAR-8 ovarian, 1.65 µM; in the assay with OVCAR-3 ovarian, 2.63 µM; with SNB-19 CNS, 11.7 µM; with HOP-62 NSCLC, 2.2 µM. Also, the GI50 in the assay on EKVX NSCLC was 0.955 µM; in the assay with SW-620 colon it was 0.825 µM; in the assay with NCI-H522 lung it was 0.261 µM. The TGI with TK-10 renal is 21 µM; in the assay on U251 CNS it was 17.6 µM; in the assay with OVCAR-8 ovarian, 18.3 µM; in the assay with OVCAR-3 ovarian it was 17.6 µM; with SNB-19 CNS, 24 µM; in the assay with HOP-62 NSCLC it was 13.6 µM. Moreover, the TGI was found to be 16.2 µM with EKVX NSCLC, 12.6 µM in the assay on SW-620 colon and 10.4 µM with NCI-H522 lung.

For `c1ccc(N=C2SC(=NC3CCCCC3)N(C3CCCCC3)C2=Nc2ccccc2)cc1`, the TGI in the assay on DU-145 prostate, in the assay with U251 CNS, in the assay on OVCAR-8 ovarian, in the assay with OVCAR-3 ovarian, with SNB-19 CNS and in the assay with HOP-62 NSCLC was above 100 µM throughout. This compound yielded a TGI with NCI-H522 lung above 100 µM.

On to `NCCCNc1nc2ccccc2c2c(=O)c3cc(OC(F)(F)F)ccc3sc12`, for which the GI50 in the assay with DU-145 prostate was 1.62 µM; with TK-10 renal, 2.14 µM; in the assay on OVCAR-8 ovarian, 2.01 µM; in the assay on SNB-19 CNS, 1.63 µM. The TGI came to 3.04 µM with DU-145 prostate, 3.74 µM in the assay on TK-10 renal, 4.77 µM in the assay on OVCAR-8 ovarian and 3.12 µM in the assay with SNB-19 CNS.

As to `Cc1cc(=O)[nH]c(NN2C(Cl)C(=O)C2c2cccc(O)c2)n1` (centres undefined), the TGI with TK-10 renal was above 100 µM; in the assay with U251 CNS, above 100 µM; in the assay with OVCAR-8 ovarian it was above 100 µM; with OVCAR-3 ovarian, 27.4 µM; with SNB-19 CNS it was above 100 µM; in the assay on HOP-62 NSCLC, above 100 µM. The TGI in the assay with EKVX NSCLC and in the assay with SW-620 colon was above 100 µM throughout.

In the case of `NC(CCCCP(=O)(O)O)C(=O)O` (centres undefined), the TGI in the assay on DU-145 prostate, with TK-10 renal, in the assay with U251 CNS, in the assay on OVCAR-8 ovarian, in the assay on OVCAR-3 ovarian and with SNB-19 CNS was above 100 µM each time. Moreover, the TGI in the assay with EKVX NSCLC, in the assay on SW-620 colon and in the assay with NCI-H522 lung was above 100 µM throughout.

The values above are taken from PubChem BioAssay (NCI).
